Data on 5 compounds can be found in the NIST ThermoML archive (doi:10.1021/je050231r).

The conditions of the data set: Liquid; for mass density: 293.2 K, 101.33 kPa.

Numbers after ± are expanded uncertainties.

Regarding `BrCCBr` [1,2-dibromoethane], the mass density (as a rule, mass per unit of volume) is reported as 2179.24 ± 2.4 kg/m3. For the same compound, the vapor or sublimation pressure (usually the equilibrium pressure above the liquid or solid) (404.6 K) stood at 101.81 ± 0.62 kPa. Besides, the “vapor or sublimation pressure” value (405.4 K) is listed as 102.09 ± 0.52 kPa. Also, the “vapor or sublimation pressure” value (405.5 K) is 102.11 ± 0.52 kPa. Moreover, the “vapor or sublimation pressure” value (405.8 K) was 101.86 ± 0.98 kPa.

As for `c1ccccc1` [benzene], the mass density came to 876.53 ± 0.19 kg/m3. Besides, the “vapor or sublimation pressure” value (354.4 K) is given as 101.77 ± 5.1 kPa.

For `Brc1ccccc1` [bromobenzene], the mass density was found to be 1495.23 ± 1.2 kg/m3. Also, the “vapor or sublimation pressure” value (429.4 K) is on record as 101.76 ± 2.6 kPa.

As to `Fc1ccccc1` [fluorobenzene], the mass density is listed as 1022.27 ± 0.27 kg/m3. The “vapor or sublimation pressure” value (358.4 K) is on record as 101.94 ± 5.1 kPa.

With `Cc1ccccc1` [toluene], the mass density came to 866.81 ± 0.28 kg/m3. Moreover, the “vapor or sublimation pressure” value (384.9 K) is reported as 102.09 ± 5.1 kPa.
